# ChEMBL document CHEMBL3856212, “Synthesis, anti-proliferative and genotoxicity studies of 6-chloro-5-(2-substituted-ethyl)-1,3-dihydro-2H-indol-2-ones and 6-chloro-5-(2-chloroethyl)-3-(alkyl/ary-2-ylidene)indolin-2-ones” (Eur J Med Chem, 2016)
# Assays:
# [1] = Cytotoxicity against human MDA-MB-468 cells assessed as growth inhibition after 48 hrs by SRB assay; assay type: functional; conditions: MDA-MB-468, 48 h; for CC50: read-out: LD50 (the source's name)
# [2] = Cytotoxicity against human NCI-H226 cells assessed as growth inhibition after 48 hrs by SRB assay; assay type: functional; conditions: NCI-H226, 48 h; for CC50: read-out: LD50 (the source's name)
# [3] = Cytotoxicity against human U251 cells assessed as growth inhibition after 48 hrs by SRB assay; assay type: functional; conditions: U-251, 48 h; for CC50: read-out: LD50 (the source's name)
# [4] = Cytotoxicity against human UACC62 cells assessed as assessed as growth inhibition at 10^-5 M after 48 hrs by SRB assay relative to control; assay type: functional; conditions: UACC-62, 48 h, read-out: GI
# [5] = Cytotoxicity against human MCF7 cells assessed as growth inhibition after 48 hrs by SRB assay; assay type: functional; conditions: MCF7, 48 h; for CC50: read-out: LD50 (the source's name)
# [6] = Cytotoxicity against human MCF7 cells assessed as assessed as growth inhibition at 10^-5 M after 48 hrs by SRB assay relative to control; assay type: functional; conditions: MCF7, 48 h, read-out: GI
# [7] = Cytotoxicity against human HCT116 cells assessed as growth inhibition after 48 hrs by SRB assay; assay type: functional; conditions: HCT-116, 48 h; for CC50: read-out: LD50 (the source's name)
# [8] = Cytotoxicity against human MDA-MB-468 cells assessed as assessed as growth inhibition at 10^-5 M after 48 hrs by SRB assay relative to control; assay type: functional; conditions: MDA-MB-468, 48 h, read-out: GI
# [9] = Cytotoxicity against human OVCAR5 cells assessed as growth inhibition after 48 hrs by SRB assay; assay type: functional; conditions: OVCAR-5, 48 h; for CC50: read-out: LD50 (the source's name)
# [10] = Cytotoxicity against human MALME-3M cells assessed as assessed as growth inhibition at 10^-5 M after 48 hrs by SRB assay relative to control; assay type: functional; conditions: read-out: GI
# [11] = Cytotoxicity against human KM12 cells assessed as assessed as growth inhibition at 10^-5 M after 48 hrs by SRB assay relative to control; assay type: functional; conditions: KM12, 48 h, read-out: GI
# [12] = Cytotoxicity against human BT549 cells assessed as growth inhibition after 48 hrs by SRB assay; assay type: functional; conditions: BT-549, 48 h; for CC50: read-out: LD50 (the source's name)
# [13] = Cytotoxicity against human HCC2998 cells assessed as assessed as growth inhibition at 10^-5 M after 48 hrs by SRB assay relative to control; assay type: functional; conditions: HCC 2998, 48 h, read-out: GI
# [14] = Cytotoxicity against human HCT15 cells assessed as assessed as growth inhibition at 10^-5 M after 48 hrs by SRB assay relative to control; assay type: functional; conditions: HCT-15, 48 h, read-out: GI
# [15] = Cytotoxicity against human NCI-H23 cells assessed as assessed as growth inhibition at 10^-5 M after 48 hrs by SRB assay relative to control; assay type: functional; conditions: NCI-H23, 48 h, read-out: GI
# [16] = Cytotoxicity against human SF268 cells assessed as growth inhibition after 48 hrs by SRB assay; assay type: functional; conditions: SF-268, 48 h; for CC50: read-out: LD50 (the source's name)
# [17] = Cytotoxicity against human NCI-H522 cells assessed as assessed as growth inhibition at 10^-5 M after 48 hrs by SRB assay relative to control; assay type: functional; conditions: NCI-H522, 48 h, read-out: GI
# [18] = Cytotoxicity against human HT-29 cells assessed as assessed as growth inhibition at 10^-5 M after 48 hrs by SRB assay relative to control; assay type: functional; conditions: HT-29, 48 h, read-out: GI
# [19] = Cytotoxicity against human Hs 578T cells assessed as growth inhibition after 48 hrs by SRB assay; assay type: functional; conditions: for CC50: read-out: LD50 (the source's name)
# [20] = Cytotoxicity against human ACHN cells assessed as assessed as growth inhibition at 10^-5 M after 48 hrs by SRB assay relative to control; assay type: functional; conditions: read-out: GI
# [21] = Cytotoxicity against human CCRF-CEM cells assessed as growth inhibition after 48 hrs by SRB assay; assay type: functional; conditions: for CC50: read-out: LD50 (the source's name)
# [22] = Cytotoxicity against human A498 cells assessed as growth inhibition after 48 hrs by SRB assay; assay type: functional; conditions: A498, 48 h; for CC50: read-out: LD50 (the source's name)
# [23] = Cytotoxicity against human HCC2998 cells assessed as growth inhibition after 48 hrs by SRB assay; assay type: functional; conditions: HCC 2998, 48 h; for CC50: read-out: LD50 (the source's name)
# [24] = Cytotoxicity against human A549 cells assessed as assessed as growth inhibition at 10^-5 M after 48 hrs by SRB assay relative to control; assay type: functional; conditions: A549, 48 h, read-out: GI
# [25] = Cytotoxicity against human OVCAR4 cells assessed as assessed as growth inhibition at 10^-5 M after 48 hrs by SRB assay relative to control; assay type: functional; conditions: OVCAR-4, 48 h, read-out: GI
# [26] = Cytotoxicity against human SF295 cells assessed as assessed as growth inhibition at 10^-5 M after 48 hrs by SRB assay relative to control; assay type: functional; conditions: SF-295, 48 h, read-out: GI
# [27] = Cytotoxicity against human A549 cells assessed as growth inhibition after 48 hrs by SRB assay; assay type: functional; conditions: A549, 48 h; for CC50: read-out: LD50 (the source's name)
# [28] = Cytotoxicity against human MDA-MB-231 cells assessed as assessed as growth inhibition at 10^-5 M after 48 hrs by SRB assay relative to control; assay type: functional; conditions: MDA-MB-231, 48 h, read-out: GI
# [29] = Cytotoxicity against human UACC62 cells assessed as growth inhibition after 48 hrs by SRB assay; assay type: functional; conditions: UACC-62, 48 h; for CC50: read-out: LD50 (the source's name)
# [30] = organism: Mus musculus; experiment: Genotoxicity in mouse EAC cells at 375 uM after 24 hrs by micronucleus assay (reference value: 3.5 +/- 0.30%); assay type: toxicity, cell-based; conditions: ehrlich
# [31] = Cytotoxicity against human OVCAR5 cells assessed as assessed as growth inhibition at 10^-5 M after 48 hrs by SRB assay relative to control; assay type: functional; conditions: OVCAR-5, 48 h, read-out: GI
# [32] = Cytotoxicity against human BT549 cells assessed as assessed as growth inhibition at 10^-5 M after 48 hrs by SRB assay relative to control; assay type: functional; conditions: BT-549, 48 h, read-out: GI
# [33] = Cytotoxicity against human NCI-ADR-RES cells assessed as assessed as growth inhibition at 10^-5 M after 48 hrs by SRB assay relative to control; assay type: functional; conditions: read-out: GI
# [34] = Cytotoxicity against human SK-MEL-2 cells assessed as growth inhibition after 48 hrs by SRB assay; assay type: functional; conditions: SK-MEL-2, 48 h; for CC50: read-out: LD50 (the source's name)
structure (smiles),measurement,setting,value
O=C1Cc2cc(CCn3cncn3)c(Cl)cc2N1,GI50,[1],2180 nM
same,TGI,[1],9540 nM
same,CC50,[1],> 1000 nM
same,GI50,[2],1000 nM
same,TGI,[2],> 1000 nM
same,CC50,[2],> 1000 nM
same,GI50,[3],1450 nM
same,TGI,[3],> 1000 nM
same,CC50,[3],> 1000 nM
same,inhibition of growth at 10 µM,[4],31.8%
same,GI50,[5],4020 nM
same,TGI,[5],> 1000 nM
same,CC50,[5],> 1000 nM
same,inhibition of growth at 10 µM,[6],71%
same,GI50,[7],3200 nM
same,TGI,[7],> 1000 nM
same,CC50,[7],> 1000 nM
same,inhibition of growth at 10 µM,[8],64.9%
same,GI50,[9],1000 nM
same,TGI,[9],> 1000 nM
same,CC50,[9],> 1000 nM
same,inhibition of growth at 10 µM,[10],6.24%
same,inhibition of growth at 10 µM,[11],64%
same,GI50,[12],8720 nM
same,TGI,[12],> 1000 nM
same,CC50,[12],> 1000 nM
same,inhibition of growth at 10 µM,[13],24.9%
same,inhibition of growth at 10 µM,[14],45.4%
same,inhibition of growth at 10 µM,[15],75.9%
same,GI50,[16],5960 nM
same,TGI,[16],> 1000 nM
same,CC50,[16],> 1000 nM
same,inhibition of growth at 10 µM,[17],67.2%
same,inhibition of growth at 10 µM,[18],2.85%
same,GI50,[19],7200 nM
same,TGI,[19],> 1000 nM
same,CC50,[19],> 1000 nM
same,inhibition of growth at 10 µM,[20],25.4%
same,GI50,[21],3500 nM
same,TGI,[21],> 1000 nM
same,CC50,[21],> 1000 nM
same,GI50,[22],3250 nM
same,TGI,[22],> 1000 nM
same,CC50,[22],> 1000 nM
same,GI50,[23],1000 nM
same,TGI,[23],> 1000 nM
same,CC50,[23],> 1000 nM
same,inhibition of growth at 10 µM,[24],40.2%
same,inhibition of growth at 10 µM,[25],13.2%
same,inhibition of growth at 10 µM,[26],30.7%
same,GI50,[27],1650 nM
same,TGI,[27],> 1000 nM
same,CC50,[27],> 1000 nM
same,inhibition of growth at 10 µM,[28],44%
same,GI50,[29],2070 nM
same,TGI,[29],> 1000 nM
same,CC50,[29],> 1000 nM
same,Activity,[30],4.13%
same,inhibition of growth at 10 µM,[31],12.6%
same,inhibition of growth at 10 µM,[32],32%
same,inhibition of growth at 10 µM,[33],47.1%
same,GI50,[34],1240 nM
same,TGI,[34],> 1000 nM
same,CC50,[34],> 1000 nM
O=C1Cc2cc(CCn3ccnc3)c(Cl)cc2N1,GI50,[1],2740 nM
same,TGI,[1],> 1000 nM
same,CC50,[1],> 1000 nM
same,GI50,[2],1000 nM
same,TGI,[2],> 1000 nM
same,CC50,[2],> 1000 nM
same,GI50,[3],8240 nM
same,TGI,[3],> 1000 nM
same,CC50,[3],> 1000 nM
same,inhibition of growth at 10 µM,[4],29.8%
same,GI50,[5],4120 nM
same,TGI,[5],> 1000 nM
same,CC50,[5],> 1000 nM
same,inhibition of growth at 10 µM,[6],77.1%
same,GI50,[7],1310 nM
same,TGI,[7],> 1000 nM
same,CC50,[7],> 1000 nM
same,inhibition of growth at 10 µM,[8],69.2%
same,GI50,[9],4480 nM
same,TGI,[9],> 1000 nM
same,CC50,[9],> 1000 nM
same,inhibition of growth at 10 µM,[10],2.24%
same,inhibition of growth at 10 µM,[11],67.8%
same,GI50,[12],9510 nM
same,TGI,[12],> 1000 nM
same,CC50,[12],> 1000 nM
same,inhibition of growth at 10 µM,[13],28.5%
same,inhibition of growth at 10 µM,[14],32.8%
same,inhibition of growth at 10 µM,[15],73.3%
same,GI50,[16],1210 nM
same,TGI,[16],> 1000 nM
same,CC50,[16],> 1000 nM
same,inhibition of growth at 10 µM,[17],55.2%
same,inhibition of growth at 10 µM,[18],1.22%
same,GI50,[19],8730 nM
same,TGI,[19],9920 nM
same,CC50,[19],> 1000 nM
same,inhibition of growth at 10 µM,[20],21.7%
same,GI50,[21],3370 nM
same,TGI,[21],> 1000 nM
same,CC50,[21],> 1000 nM
same,GI50,[22],2190 nM
same,TGI,[22],6110 nM
same,CC50,[22],> 1000 nM
same,GI50,[23],3220 nM
same,TGI,[23],> 1000 nM
same,CC50,[23],> 1000 nM
same,inhibition of growth at 10 µM,[24],33.3%
same,inhibition of growth at 10 µM,[25],2.81%
same,inhibition of growth at 10 µM,[26],36.6%
same,GI50,[27],7630 nM
same,TGI,[27],> 1000 nM
same,CC50,[27],> 1000 nM
same,inhibition of growth at 10 µM,[28],54.5%
same,GI50,[29],7680 nM
same,TGI,[29],> 1000 nM
same,CC50,[29],> 1000 nM
same,Activity,[30],3.43%
same,inhibition of growth at 10 µM,[31],18.9%
same,inhibition of growth at 10 µM,[32],30.3%
same,inhibition of growth at 10 µM,[33],54.3%
same,GI50,[34],5780 nM
same,TGI,[34],7360 nM
same,CC50,[34],> 1000 nM
